One may read the kinetic solubility as the concentration staying in solution when a stock, usually in DMSO, is diluted into the medium.

Consider 1 compound from patent US20180065968A1, “NEW SUBSTITUTED TRIAZOLOPYRIMIDINES AS ANTI-MALARIAL AGENTS” (BOARD OF REGENTS OF THE UNIVERSITY OF TEXAS SYSTEM, priority 2015, published 2018).

One data set addresses T1, pfDHODH (Plasmodium falciparum, UniProt Q08210).
T1 sequence (Q08210 24-569): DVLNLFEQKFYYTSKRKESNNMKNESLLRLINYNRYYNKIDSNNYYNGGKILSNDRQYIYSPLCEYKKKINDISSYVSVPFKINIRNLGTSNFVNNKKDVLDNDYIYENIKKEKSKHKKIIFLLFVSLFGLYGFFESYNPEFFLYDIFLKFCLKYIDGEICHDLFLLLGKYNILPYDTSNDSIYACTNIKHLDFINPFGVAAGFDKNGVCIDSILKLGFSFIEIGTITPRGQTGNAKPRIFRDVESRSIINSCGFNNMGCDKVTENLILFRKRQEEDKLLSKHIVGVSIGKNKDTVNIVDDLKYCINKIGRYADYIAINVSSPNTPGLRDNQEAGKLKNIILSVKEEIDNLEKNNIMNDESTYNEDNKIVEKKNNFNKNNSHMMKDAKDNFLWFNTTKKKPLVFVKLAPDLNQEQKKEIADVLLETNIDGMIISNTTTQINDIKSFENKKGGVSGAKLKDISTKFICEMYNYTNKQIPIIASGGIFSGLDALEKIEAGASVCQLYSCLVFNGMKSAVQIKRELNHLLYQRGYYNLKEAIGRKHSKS
The data set can be described thus: biochemical. The conditions noted are these: recombinant enzyme, DCIP assay, IC50; read-out: PfDHODH. The protocol:
(§1) The compounds of the invention were also assessed for inhibitory activity against recombinant DHODH from the indicated species. Recombinant enzymes were produced and purified from E. coli as His6 fusion proteins and purified by Ni^+2-agarose chromatography as described.
(§2) Data were collected on a Synergy H1 hybrid plate reader in 96 well plate format at 28° C., using a final assay volume of 200 μl. Rate data (v) were converted to μmoles/min using the molar extinction coefficient for DCIP. Compounds were prepared in stock solutions of DMSO. An initial 100 mM stock was generated and this was used to prepare a 3 fold dilution series in DMSO. A 1:100 dilution of DMSO stock was made into assay buffer to generate the final concentration in the assay mix.
(§3) Assay Conditions: DHODH (ET=5-10 nM), substrates (0.2 mM L-dihydroorotate and 0.02 mM CoQD), DCIP (0.12 mM) and assay buffer (100 mM HEPES, pH 8.0, 150 mM NaCl, 10% Glycerol, 0.1%Triton) at 20° C. Concentration of compounds of the invention was varied in a 3-fold dilution series (0.01-100 uM). All data were collected in triplicate.
(§4) Fitting was performed in Graph Pad Prism to determine the IC50. Reported error represents the 95% confidence interval of the fit or the standard deviation of the mean.

A further data set addresses dog DHODH (Canis lupus familiaris, UniProt A0A8I3MWX2). The experiment in a line: Recombinant DHODH inhibition, DCIP dye-based assay. In kind it is biochemical. The conditions noted are these: dog DHODH, second value of cell; read-out: h/d/m/r DHODH (d). On the procedure: as §1, §2, §3, §4
The target in another data set is human DHODH (Homo sapiens, UniProt Q02127). The experiment in a line: Recombinant DHODH inhibition, DCIP dye-based assay. The format is biochemical. The conditions noted are these: first value of cell, read-out: h/d/m/r DHODH (h). The protocol:
as §1, §2, §3, §4

The target in another data set is mouse DHODH (Mus musculus, UniProt O35435). The data set can be described thus: Recombinant DHODH inhibition, DCIP dye-based assay. In kind it is biochemical. The settings on record: third value of cell, read-out: h/d/m/r DHODH (m). The protocol:
as §1, §2, §3, §4

The next data set deals with rat DHODH (Rattus norvegicus, UniProt Q63707). The data set can be described thus: Recombinant DHODH inhibition, DCIP dye-based assay. The format is biochemical. The settings on record: fourth value of cell, read-out: h/d/m/r DHODH (r). On the procedure: as §1, §2, §3, §4
rat DHODH, sequence (Q63707 whole entry): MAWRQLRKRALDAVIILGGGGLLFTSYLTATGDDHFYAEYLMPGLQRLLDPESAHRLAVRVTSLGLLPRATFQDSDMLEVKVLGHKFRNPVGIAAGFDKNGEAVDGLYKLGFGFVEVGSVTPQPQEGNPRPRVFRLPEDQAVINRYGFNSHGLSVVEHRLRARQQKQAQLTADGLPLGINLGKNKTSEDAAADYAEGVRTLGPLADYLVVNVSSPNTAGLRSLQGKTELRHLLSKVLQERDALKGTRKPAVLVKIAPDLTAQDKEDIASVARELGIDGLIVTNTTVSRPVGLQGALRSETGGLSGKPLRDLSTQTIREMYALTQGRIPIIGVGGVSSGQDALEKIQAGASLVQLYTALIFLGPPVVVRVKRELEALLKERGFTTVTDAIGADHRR
A short description of data set [1]: Aqueous kinetic solubility by nephelometry. The format is physicochemical. The conditions noted are these: aqueous buffer, kinetic from dmso stock, pH 6.5 phosphate buffer, 1% DMSO, read-out: Kinetic Solubility pH6.5. On the procedure: Aqueous solubility was estimated by nephelometry. Concentrated stock solutions were prepared in DMSO and diluted into either pH 6.5 phosphate buffer or 0.01 M HCl (approximately pH 2.0), with the final DMSO concentration being 1%. Samples were then analyzed by nephelometry to determine the solubility range as described previously (Bevan, et al., 2000, Anal. Chem., 72, 1781-1787).

In data set [2] the test system is P. falciparum clinical isolates. The experiment in a line: Ex vivo schizont maturation assay, clinical isolates. In kind it is cell-based. The conditions noted are these: Plasmodium falciparum; ex vivo schizont maturation, 35-56 hrs; isolates from Timika (Papua, Indonesia); read-out: P. falciparum clinical isolates IC50. On the procedure:
(§5) To assess comparative activity between P. falciparum and P. vivax strains compounds were tested in an ex vivo parasite assay using Plasmodium isolates from patients who visited clinics in Timika (Papua, Indonesia). Parasites in this region are resistant to standard anti-malarials such as chloroquine. P. vivax can not be cultivated in vitro so the ex vivo assay is the only method to evaluate drug sensitivity. Patients with parasitemia between 2000 and 80,000 ul^−1 were eligible for recruitment into the study. Blood was collected by venipuncture, host white blood cells were removed and packed infected red blood cells were used for the ex vivo studies. Drug susceptibility was measured as previously described (Russell et al., 2008, Antimicrobial Agents Chemother., 52, 1040-1045; Marfurt et al., 2011, Antimicrobial Agents Chemother., 55, 961-966; Marfurt et al., 2011, Antimicrobial Agents Chemother., 55, 4461-4464). Briefly two hundred μl of a 2% hematocrit blood mixture, consisting of RPMI 1640 medium plus 10% AB+ human serum (P. falciparum) or McCoy's 5A medium plus 20% AB+ human serum (P. vivax) was added to each well of pre-dosed drug plates containing serial 2-fold dilutions of the anti-malarial compound. A candle jar was used to mature parasites at 37° C. for 35-56 hrs. […] Thick blood films made from each well were stained with 5% Giemsa for 30 min and examined microscopically. The number of schizonts per 200 asexual stage parasites was determined and normalized to the control well. Data were analyzed by nonlinear regression (WinNonLn 4.1) to determine the IC50 using the inhibitory sigmoid Emax model.
(§6) Drug plate quality was assured by running schizont maturation assays (two independent experiments) with the chloroquine-resistant strain K1 and the chloroquine-sensitive strain FC27. For microscopy slide reading QC, two randomly selected drugs per isolate were read by a second microscopist. […] If necessary, discrepant results were resolved by a third reading by an expert microscopist.

For data set [3], the system named is P. vivax clinical isolates. The description is as above. The format is cell-based. The protocol:
as §5, §6

human DHODH, sequence (Q02127 whole entry): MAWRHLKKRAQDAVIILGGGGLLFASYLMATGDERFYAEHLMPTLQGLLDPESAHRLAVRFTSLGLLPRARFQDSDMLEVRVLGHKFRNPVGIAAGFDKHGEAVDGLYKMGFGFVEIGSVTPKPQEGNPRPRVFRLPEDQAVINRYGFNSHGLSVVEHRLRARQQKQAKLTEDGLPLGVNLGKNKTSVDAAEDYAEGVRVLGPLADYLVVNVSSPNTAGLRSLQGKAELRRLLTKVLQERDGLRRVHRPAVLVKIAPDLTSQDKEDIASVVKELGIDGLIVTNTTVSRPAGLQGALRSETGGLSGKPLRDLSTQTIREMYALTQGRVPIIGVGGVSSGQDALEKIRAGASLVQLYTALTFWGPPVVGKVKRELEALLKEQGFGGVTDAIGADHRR
dog DHODH, sequence (A0A8I3MWX2 1-406): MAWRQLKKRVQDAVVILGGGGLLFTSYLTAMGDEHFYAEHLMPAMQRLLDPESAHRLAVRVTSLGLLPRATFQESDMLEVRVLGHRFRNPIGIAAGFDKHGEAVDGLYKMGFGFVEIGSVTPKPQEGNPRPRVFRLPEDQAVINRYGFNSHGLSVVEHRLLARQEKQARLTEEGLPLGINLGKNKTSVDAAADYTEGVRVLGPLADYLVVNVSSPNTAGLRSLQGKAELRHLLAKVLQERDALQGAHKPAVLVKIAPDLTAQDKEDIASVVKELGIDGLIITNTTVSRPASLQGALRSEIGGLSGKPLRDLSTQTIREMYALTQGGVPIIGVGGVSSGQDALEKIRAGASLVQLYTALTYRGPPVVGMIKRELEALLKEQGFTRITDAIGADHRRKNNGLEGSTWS
mouse DHODH, sequence (O35435 whole entry): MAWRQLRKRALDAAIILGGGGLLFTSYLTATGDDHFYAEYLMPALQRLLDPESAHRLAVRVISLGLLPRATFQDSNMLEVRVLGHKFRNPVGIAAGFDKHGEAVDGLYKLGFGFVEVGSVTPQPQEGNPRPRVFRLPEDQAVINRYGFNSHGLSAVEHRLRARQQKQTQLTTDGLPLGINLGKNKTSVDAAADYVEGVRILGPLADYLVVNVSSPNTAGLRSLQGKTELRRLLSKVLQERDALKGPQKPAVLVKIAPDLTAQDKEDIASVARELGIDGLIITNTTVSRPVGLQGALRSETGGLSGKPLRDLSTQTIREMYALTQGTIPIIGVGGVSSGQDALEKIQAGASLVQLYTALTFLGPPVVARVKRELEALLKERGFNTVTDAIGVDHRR

`Cc1cc(Nc2ccc(C(F)(F)F)nc2)n2nc(C(C)(F)F)nc2n1` [Compound (1), 2-(1,1-difluoroethyl)-5-methyl-N-(6-(trifluoromethyl)pyridin-3-yl)-[1,2,4]triazolo[1,5-a]pyrimidin-7-amine]: the IC50 on pfDHODH was 0.03 µM; at dog DHODH, 65 µM; at human DHODH, more than 100 µM; on mouse DHODH, 54 µM; on rat DHODH it was 24 µM; in data set [2] it was 0.151 µM. In addition, the IC50 in data set [3] (Plasmodium vivax, ex vivo schizont maturation, 35-56 hrs, isolates from Timika (Papua, Indonesia), read-out: P. vivax clinical isolates IC50) amounted to 0.175 µM. Also, the solubility (kinetic) in data set [1] was more than 100 µg/mL. For the same compound, the “comparative activity between P. falciparum and P. vivax” value in data set [3] (ex vivo parasite assay) was “equivalent activity on both P. falciparum and P. vivax”.
